This note sets out measurements from BindingDB's records for patent US12552758 (Neophore, 2026).

The target in assay [1] is T1, Mismatch repair endonuclease PMS2 (UniProt P54278).
T1 sequence (P54278 whole entry): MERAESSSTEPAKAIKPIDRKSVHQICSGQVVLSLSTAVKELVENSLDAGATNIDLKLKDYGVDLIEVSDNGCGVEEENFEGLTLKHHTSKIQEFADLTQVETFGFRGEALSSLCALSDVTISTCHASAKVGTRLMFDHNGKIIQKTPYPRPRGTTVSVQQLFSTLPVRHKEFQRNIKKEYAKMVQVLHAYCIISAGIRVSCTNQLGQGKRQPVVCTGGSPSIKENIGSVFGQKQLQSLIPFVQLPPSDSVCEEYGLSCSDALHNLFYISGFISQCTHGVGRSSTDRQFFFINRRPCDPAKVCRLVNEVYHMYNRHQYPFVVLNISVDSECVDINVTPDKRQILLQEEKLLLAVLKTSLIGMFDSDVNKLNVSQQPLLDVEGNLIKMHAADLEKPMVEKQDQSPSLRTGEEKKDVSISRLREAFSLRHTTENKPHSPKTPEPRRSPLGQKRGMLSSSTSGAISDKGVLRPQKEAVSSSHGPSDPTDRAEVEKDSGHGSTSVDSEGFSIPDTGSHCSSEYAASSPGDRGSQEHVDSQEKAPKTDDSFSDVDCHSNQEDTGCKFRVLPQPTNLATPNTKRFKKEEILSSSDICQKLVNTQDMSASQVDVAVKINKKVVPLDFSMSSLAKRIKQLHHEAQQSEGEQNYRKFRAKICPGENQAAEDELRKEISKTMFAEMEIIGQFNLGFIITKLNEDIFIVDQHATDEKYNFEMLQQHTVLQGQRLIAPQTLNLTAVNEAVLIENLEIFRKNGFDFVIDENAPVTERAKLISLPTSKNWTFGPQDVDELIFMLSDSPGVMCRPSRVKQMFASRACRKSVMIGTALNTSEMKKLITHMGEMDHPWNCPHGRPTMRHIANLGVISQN
Kind of assay: Fluorescence Polarisation Assay for PMS2. The protocol: 20 μL assay buffer was added to all wells in columns 1 and 24 (column 24 only for single point screening) using a MultiDrop Combi (ThermoFisher). Plates were centrifuged for 1 minute at 250×g and were incubated at room temperature for 30 minutes prior to the addition of 20 μL of 2×([…]) of 5-((5-(4-((2-(2,4-dihydroxy-5-isopropylbenzoyl)isoindolin-5-yl)methyl)piperazin-1-yl)pentyl)carbamoyl)-2-(6-(dimethylamino)-3-(dimethyliminio)-3H-xanthen-9-yl)benzoate (referred to hereinafter as “probe compound”) in assay buffer (prepared from a 100 μM DMSO stock) with a MultiDrop Combi (ThermoFisher). The final concentration of N-terminal PMS2 was 10 nM and the final concentration of probe compound was 5 nM.

Assay [2] addresses T2, DNA mismatch repair protein Mlh1 (UniProt P40692).
T2 sequence (P40692 whole entry): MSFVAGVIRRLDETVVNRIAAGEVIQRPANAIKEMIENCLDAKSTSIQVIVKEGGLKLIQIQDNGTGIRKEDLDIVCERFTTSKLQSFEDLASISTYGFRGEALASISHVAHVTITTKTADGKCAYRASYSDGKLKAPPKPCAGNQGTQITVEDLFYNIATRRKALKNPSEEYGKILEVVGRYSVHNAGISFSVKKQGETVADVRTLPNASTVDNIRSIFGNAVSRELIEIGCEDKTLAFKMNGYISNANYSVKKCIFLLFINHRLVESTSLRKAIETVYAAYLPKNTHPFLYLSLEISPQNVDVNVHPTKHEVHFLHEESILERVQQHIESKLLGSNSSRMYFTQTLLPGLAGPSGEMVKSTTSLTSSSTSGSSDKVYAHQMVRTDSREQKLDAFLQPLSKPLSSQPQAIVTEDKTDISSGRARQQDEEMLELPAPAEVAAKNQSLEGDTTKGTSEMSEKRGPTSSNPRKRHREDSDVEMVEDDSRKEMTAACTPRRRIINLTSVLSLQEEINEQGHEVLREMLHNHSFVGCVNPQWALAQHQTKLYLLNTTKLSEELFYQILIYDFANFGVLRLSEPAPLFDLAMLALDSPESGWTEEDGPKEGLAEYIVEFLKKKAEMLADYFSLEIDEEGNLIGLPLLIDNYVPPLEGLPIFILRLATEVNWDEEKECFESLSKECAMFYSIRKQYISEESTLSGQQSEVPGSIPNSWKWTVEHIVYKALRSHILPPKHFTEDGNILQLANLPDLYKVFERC
Description: Fluorescence Polarisation Assay for MLH1. The procedure:
20 μL assay buffer was added to all wells in columns 1 and 24 (column 24 only for single point screening) using a MultiDrop Combi (ThermoFisher). Plates were centrifuged for 1 minute at 250×g and were incubated at room temperature for 30 minutes prior to the addition of 20 μL of 2×(10 nM) of 5-((5-(4-((2-(2,4-dihydroxy-5-isopropylbenzoyl)isoindolin-5-yl)methyl)piperazin-1-yl)pentyl)carbamoyl)-2-(6-(dimethylamino)-3-(dimethyliminio)-3H-xanthen-9-yl)benzoate (referred to hereinafter as “probe compound”) in assay buffer (prepared from a 100 μM DMSO stock) with a MultiDrop Combi (ThermoFisher). The final concentration of N-terminal MLH1 was 100 nM and the final concentration of probe compound was 5 nM.
In general terms: In fluorescence polarisation assays a small probe gives low polarisation when free and higher when bound to something large.

Take `Cc1c(O)cc(O)c(C(=O)N2Cc3cccnc3C2)c1OCc1ccccc1` [US12552758, Example 30]: the 50% inhibitory concentration (IC50) in assay [1] is less than 1000 nM; in assay [2], more than 10 µM.
Regarding `Cc1c(O)cc(O)c(C(=O)N2Cc3cccc(Br)c3C2)c1OCc1ccccc1` [US12552758, Example 38], the IC50 was less than 1000 nM in assay [1] and more than 10 µM in assay [2].

Broadly, the IC50 is the point on the concentration scale where inhibition reaches its midpoint. Read a low IC50 as greater potency.
